These results are taken from patent publication US9675605B2, “Substituted naphthyridine and quinoline compounds as MAO inhibitors” (DART NEUROSCIENCE (CAYMAN) LTD., priority 2013, dated 2017).

Sequence of Human recombinant MAO-A (P21397 whole entry): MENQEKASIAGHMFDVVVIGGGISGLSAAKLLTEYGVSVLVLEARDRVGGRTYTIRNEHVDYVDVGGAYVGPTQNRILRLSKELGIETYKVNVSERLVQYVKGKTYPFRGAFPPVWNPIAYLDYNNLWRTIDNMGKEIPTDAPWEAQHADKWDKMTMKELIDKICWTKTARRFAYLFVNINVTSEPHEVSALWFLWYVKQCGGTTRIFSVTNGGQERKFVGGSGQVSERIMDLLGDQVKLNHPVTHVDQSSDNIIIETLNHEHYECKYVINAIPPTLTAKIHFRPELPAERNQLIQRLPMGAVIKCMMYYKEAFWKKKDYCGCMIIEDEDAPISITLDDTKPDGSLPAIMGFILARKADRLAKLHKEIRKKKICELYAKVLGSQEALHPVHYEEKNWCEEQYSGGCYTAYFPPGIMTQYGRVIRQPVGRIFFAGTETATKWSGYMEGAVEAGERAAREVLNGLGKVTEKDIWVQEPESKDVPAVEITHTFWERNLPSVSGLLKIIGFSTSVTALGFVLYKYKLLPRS

One test concerns the target Human recombinant MAO-A (Homo sapiens (Human), UniProt P21397). Kind of test: MAO enzymatic assay, MAO-B selectivity (MAO-A/MAO-B). The class given is biochemical. The settings on record: selectivity for MAO-B over MAO-A; values given as ranges. As for the experimental part: (§1) The MAO enzymatic assay was performed according to the fluorometric method described by Matsumoto and colleagues (Matsumoto et al., Clin. Biochem. 1985, 18, 126-129) with the following modifications. Human recombinant MAO-A and MAO-B expressed in insect cells were used. For both assays, test compound and/or vehicle were preincubated with purified enzyme in phosphate buffer pH 7.4 for 15 minutes at 37° C. The reaction was initiated by addition of […] kynuramine. Following a 60 minute incubation period, the reaction was terminated by the addition of 6 N NaOH. The amount of 4-hydroxyquinoline that formed was determined by spectrofluorimetrically at 325 nm/465 nm.
(§2) Results were converted to percent inhibition, and the EC50 (M) for each reaction was determined using the XLfit program from IDBS (ID Business Solutions Ltd., 2 Occam Court, Surrey Research Park, Guildford, Surrey, GU2 7QB UK). The EC50 represents the concentration of a compound where 50% of its maximal effect is observed. The pEC50 is defined as the negative logarithm of the EC50; a higher pEC50 value therefore corresponds to higher potency in the assay.
With `CCOC(=O)c1cnc2cc(OCc3ccc(C(F)(F)F)cc3)ccc2c1` [Example 6, Ethyl 7-((4-(trifluoromethyl)benzyl)oxy)quinoline-3-carboxylate], the MAO-A/MAO-B was >10-100.

For `CCOC(=O)c1cnc2cc(OCCc3cccc(Cl)c3)ccc2c1` [Example 25, Ethyl 7-(3-chlorophenethoxy)quinoline-3-carboxylate], the MAO-A/MAO-B was >10-100.

Take `CCOC(=O)c1cnc2cc(OCc3cccc([N+](=O)[O-])c3)ccc2c1` [Example 18, Ethyl 7-((3-nitrobenzyl)oxy)quinoline-3-carboxylate]: the MAO-A/MAO-B is listed as >10-100.

For `CC(C)(O)c1cnc2cc(OCc3ccc(F)cc3)ccc2c1` [Example 27, 2-(7-((4-Fluorobenzyl)oxy)quinolin-3-yl)propan-2-ol], the MAO-A/MAO-B is reported as more than 200.

As to `CCOC(=O)c1cnc2cc(OCc3cc(F)c(F)c(F)c3)ccc2c1` [Example 16, Ethyl 7-((3,4,5-trifluorobenzyl)oxy)quinoline-3-carboxylate], the MAO-A/MAO-B is recorded as more than 200.

Take `CCOC(=O)c1cnc2cc(OCc3cccc(OC)c3)ccc2c1` [Example 9, Ethyl 7-((3-methoxybenzyl)oxy)quinoline-3-carboxylate]: the MAO-A/MAO-B is recorded as >100-200.

As to `CCOC(=O)c1cnc2cc(OCc3ccc(F)c(Cl)c3)ccc2c1` [Example 17, Ethyl 7-((3-chloro-4-fluorobenzyl)oxy)quinoline-3-carboxylate], the MAO-A/MAO-B is given as >100-200.

In the case of `CCOC(=O)c1cnc2cc(OCc3ccc(F)c(C(F)(F)F)c3)ccc2c1` [Example 12, Ethyl 7-((4-fluoro-3-(trifluoromethyl)benzyl)oxy)quinoline-3-carboxylate], the MAO-A/MAO-B was more than 200.

Regarding `CCOC(=O)c1cnc2cc(OCc3ccc(C)cc3)ccc2c1` [Example 8, Ethyl 7-((4-methylbenzyl)oxy)quinoline-3-carboxylate], the MAO-A/MAO-B is >10-100.

With `CCOC(=O)c1cnc2cc(OCc3cccc(C(F)(F)F)c3)ccc2c1` [Example 5, Ethyl 7-((3-(trifluoromethyl)benzyl)oxy)quinoline-3-carboxylate], the MAO-A/MAO-B is given as >100-200.

For the compound `CCOC(=O)c1cnc2cc(OCc3cccc(Cl)c3)ccc2c1` [Example 3, Ethyl 7-[(3-chlorophenyl)methoxy]quinoline-3-carboxylate], the MAO-A/MAO-B is >10-100.

In the case of `CCOC(=O)c1cnc2cc(OCc3cc(F)cc(F)c3)ccc2c1` [Example 15, Ethyl 7-((3,5-difluorobenzyl)oxy)quinoline-3-carboxylate], the MAO-A/MAO-B was more than 200.

Turning to `CCOC(=O)c1cnc2cc(OCc3cccc(F)c3)ccc2c1` [Example 4, Ethyl 7[(3-fluorophenyl)methoxy]quinoline-3-carboxylate], the MAO-A/MAO-B is listed as 1-10.

With `CCOC(=O)c1cnc2cc(OCc3cccc(C)c3)ccc2c1` [Example 7, Ethyl 7-((3-methylbenzyl)oxy)quinoline-3-carboxylate], the MAO-A/MAO-B was >100-200.

Consider `CCOC(=O)c1cnc2cc(OCc3cc(F)cc(C(F)(F)F)c3)ccc2c1` [Example 13, Ethyl 7-((3-fluoro-5-(trifluoromethyl)benzyl)oxy)quinoline-3-carboxylate], for which the MAO-A/MAO-B is listed as >100-200.

For the compound `CCOC(=O)c1cnc2cc(OCc3ccc(F)c(F)c3)ccc2c1` [Example 14, Ethyl 7-((3,4-difluorobenzyl)oxy)quinoline-3-carboxylate], the MAO-A/MAO-B is given as more than 200.

As to `CCOC(=O)c1cnc2cc(OCCc3cccc(F)c3)ccc2c1` [Example 24, Ethyl 7-(3-fluorophenethoxy)quinoline-3-carboxylate], the MAO-A/MAO-B is listed as >10-100.

As for `CCOC(=O)c1cnc2cc(OCc3ccc(F)cc3)ccc2c1` [Example 2, Ethyl 7-[(4-fluorophenyl)methoxy]quinoline-3-carboxylate], the MAO-A/MAO-B was >100-200.

In the case of `CCOC(=O)c1cnc2cc(OCc3ccc([N+](=O)[O-])cc3)ccc2c1` [Example 11, Ethyl 7-((4-nitrobenzyl)oxy)quinoline-3-carboxylate], the MAO-A/MAO-B is 1-10.

As to `CCOC(=O)c1cnc2cc(OCc3ccc(Cl)cc3)ccc2c1` [Example 1, Ethyl 7-[(4-chlorophenyl)methoxy]quinoline-3-carboxylate], the MAO-A/MAO-B is recorded as >10-100.

Turning to `CCOC(=O)c1cnc2cc(OCc3ccc(OC)cc3)ccc2c1` [Example 10, Ethyl 7-((4-methoxybenzyl)oxy)quinoline-3-carboxylate], the MAO-A/MAO-B is >10-100.

The next test deals with Human recombinant MAO-B (Homo sapiens (Human), UniProt P27338). Kind of test: MAO-B enzymatic assay (fluorometric, kynuramine). It counts as biochemical. The settings on record: human recombinant MAO-B expressed in insect cells, 50 μm kynuramine, pH 7.4, 37° C.; values given as ranges; read-out: MAO-B (pEC50) (converted). As for the experimental part: as §1, §2
Sequence of Human recombinant MAO-B (P27338 whole entry): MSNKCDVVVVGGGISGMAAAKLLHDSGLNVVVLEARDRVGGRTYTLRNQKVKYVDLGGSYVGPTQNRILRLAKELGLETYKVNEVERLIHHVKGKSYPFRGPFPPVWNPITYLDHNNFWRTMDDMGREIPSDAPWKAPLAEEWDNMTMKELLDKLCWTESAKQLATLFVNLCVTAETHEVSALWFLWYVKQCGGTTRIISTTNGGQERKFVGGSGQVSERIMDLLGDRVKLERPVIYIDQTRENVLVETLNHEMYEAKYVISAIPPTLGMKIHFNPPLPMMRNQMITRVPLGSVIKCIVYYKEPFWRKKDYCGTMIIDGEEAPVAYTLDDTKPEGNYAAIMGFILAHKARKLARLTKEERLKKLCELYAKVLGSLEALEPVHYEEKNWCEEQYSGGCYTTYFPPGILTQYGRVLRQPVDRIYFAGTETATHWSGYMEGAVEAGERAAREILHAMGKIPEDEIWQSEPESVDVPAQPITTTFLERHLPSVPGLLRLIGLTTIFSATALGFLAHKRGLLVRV
Representative compounds of the invention were evaluated in the MAO-B enzymatic assay. Typically, the compounds of the invention show MAO-B inhibitory properties at a concentration of 0.1 to 10 μM, typically at 5-100%.
`CCOC(=O)Cc1cnc2cc(OCc3cccc(Cl)c3)ccc2c1` [Example 51, Ethyl 2-(7-((3-chlorobenzyl)oxy)quinolin-3-yl)acetate]: the EC50 was 100 to 1000 nM.
